Assay results as given in US10695296B2, “Formulations, methods, kit, and dosage forms for improved stability of an active pharmaceutical ingredient” (Asana BioSciences, LLC, priority 2017, dated 2020).
Like-named read-outs stand apart in the source and are kept apart here.

Experiment: PK characteristics in humans (plasma, LC/MS/MS)
Format: in vivo, human
Conditions: for Cmax / half-life / Tmax / AUC(0-t): human, plasma; for Cmax: read-out: Cmax; for Tmax: read-out: Tmax
Experimental: A pharmaceutical formulation of the disclosure comprising the active ingredient N-(3-(2-(6-amino-4-(trifluoromethyl)pyridin-3-yl)-4-morpholinopyrido[3,2-d]pyrimidin-6-yl)-2-fluorophenyl)-3-fluoropropane-1-sulfonamide was evaluated for safety/tolerability and preliminary efficacy in eligible human subjects with advanced solid tumors, and the pharmacokinetic (PK) profile of the active ingredient was investigated for each subject. Eligibility criteria for inclusion in this study included:
Fifteen eligible patients were enrolled in total daily dose levels ranging from 10-800 mg per day of the active ingredient, provided as 10-mg, 20-mg, 80-mg and 120-mg tablets for oral administration. Dose escalation is ongoing. All study medication supplies were provided by Asana BioSciences, LLC (Bridgewater, N.J.). The tablets were administered orally every 12-24 hours on an empty stomach (either 1 hour before or 2 hours after a meal or snack) with approximately 240 mL of water. On study days in which there was a single plasma PK sample taken, the subject was instructed to fast for at least 2 hours prior to collection of the PK sample. On study days with multiple plasma PK samples taken, the subject was instructed to fast overnight (at least 8 hours prior to study drug administration) and remain fasting for 2 hours after study drug administration. The date and time of the dose(s) taken prior to or on PK sampling days were collected by the study site or catalogued via a diary card provided to the subject.
An ultra performance liquid chromatographic method was used for the determination of the active ingredient in human EDTA K2 plasma. This method was validated over an analytical range of 0.5 to 500 ng/mL. Calibration standards (CS) and quality control (QC) samples at three or four levels of concentrations were prepared fresh from the appropriate working solutions which were stored at −20° C. The human EDTA K2 plasma used for the preparation of CS and QC samples was obtained from Bioreclamation (Westbury, Pa., USA) and analyzed to determine possible interference with the analyte or the internal standard, and no significant interference was observed. The following parameters were used to determine analyte levels in the plasma samples: […]

[1] = oral, 40 mg, Day 15, 40 mg, n=2, mean
[2] = oral, 40 mg, steady state, 40 QD mg, n=2, mean, cancer patients
[3] = oral, 80 mg, Day 1, 80 mg, n=2, mean
[4] = oral, 80 mg, Day 15, 80 mg, n=2, mean
[5] = oral, 80 mg, steady state, 80 QD mg, n=2, mean, cancer patients
[6] = oral, 240 mg, Day 1, 240 mg, n=2, mean
[7] = oral, 240 mg, Day 15, 240 mg, n=2, mean
[8] = oral, 240 mg, steady state, 240 QD mg, n=2, mean, cancer patients
[9] = oral, 400 mg, Day 1, 400 bid mg, individual subjects
[10] = oral, 400 mg, Day 1, 400 bid mg, mean
[11] = oral, 400 mg, Day 15, 400 QD mg, n=2, mean
[12] = oral, 400 mg, Day 15, 400 bid mg, n=1
[13] = oral, 400 mg, steady state, 400 BID mg, n=1, cancer patients
[14] = oral, 400 mg, steady state, 400 QD mg, n=2, mean, cancer patients

**Q.** Which results are given for `Nc1cc(C(F)(F)F)c(-c2nc(N3CCOCC3)c3nc(-c4cccc(NS(=O)(=O)CCCF)c4F)ccc3n2)cn1` [CMPD A, N-(3-(2-(6-amino-4-(trifluoromethyl)pyridin-3-yl)-4-morpholinopyrido[3,2-d]pyrimidin-6-yl)-2-fluorophenyl)-3-fluoropropane-1-sulfonamide]?
**A.** Cmax [1]: 348 ng/mL; half-life (oral, 40 mg, Day 15, 40 mg, n=2, mean, read-out: T1/2 (converted)): 35.1 h; Tmax [1]: 4 h; AUC(0-t) (oral, 40 mg, steady state, 40 QD mg, n=2, mean, cancer patients, read-out: AUC0-24h): 5890 ng·h/mL; Cmax [2]: 348 ng/mL; Tmax [2]: 4 h; half-life (oral, 80 mg, Day 1, 80 mg, individual subject (other NC), read-out: T1/2 (converted)): 22.4 h; Cmax (oral, 80 mg, Day 1, 80 mg, individual subjects): 470 ng/mL; AUC(0-t) (oral, 80 mg, Day 1, 80 mg, n=2, mean, read-out: AUC0-24): 6050 ng·h/mL; Cmax [3]: 384 ng/mL; Tmax [3]: 14 h; half-life (oral, 80 mg, Day 15, 80 mg, individual subject (other NC), read-out: T1/2 (converted)): 48.7 h; AUC(0-t) (oral, 80 mg, Day 15, 80 mg, individual subjects, read-out: AUC0-24): 19000 ng·h/mL; Cmax (oral, 80 mg, Day 15, 80 mg, individual subjects): 931 ng/mL; AUC(0-t) (oral, 80 mg, Day 15, 80 mg, n=2, mean, read-out: AUC0-24): 20100 ng·h/mL; Cmax [4]: 1060 ng/mL; Tmax [4]: 14 h; AUC(0-t) (oral, 80 mg, steady state, 80 QD mg, n=2, mean, cancer patients, read-out: AUC0-24h): 20100 ng·h/mL; Cmax [5]: 1060 ng/mL; Tmax [5]: 14 h; AUC(0-t) (oral, 120 mg, Day 1, 120 mg, n=3, mean, read-out: AUC0-24): 6660 ng·h/mL; Cmax (oral, 120 mg, Day 1, 120 mg, n=3, mean): 509 ng/mL; half-life (oral, 120 mg, Day 1, 120 mg, n=3, mean, read-out: T1/2 (converted)): 24.9 h; Tmax (oral, 120 mg, Day 1, 120 mg, n=3): 4 h; AUC(0-t) (oral, 120 mg, Day 15, 120 mg, n=3, mean, read-out: AUC0-24): 10100 ng·h/mL; Cmax (oral, 120 mg, Day 15, 120 mg, n=3, mean): 728 ng/mL; half-life (oral, 120 mg, Day 15, 120 mg, n=3, mean, read-out: T1/2 (converted)): 24.1 h; Tmax (oral, 120 mg, Day 15, 120 mg, n=3): 4 h; Tmax (oral, 120 mg, steady state, 120 QD mg, n=3, cancer patients): 4 h; AUC(0-t) (oral, 120 mg, steady state, 120 QD mg, n=3, mean, cancer patients, read-out: AUC0-24h): 10100 ng·h/mL; Cmax (oral, 120 mg, steady state, 120 QD mg, n=3, mean, cancer patients): 728 ng/mL; AUC(0-t) (oral, 240 mg, Day 1, 240 mg, n=2, mean, read-out: AUC0-24): 6930 ng·h/mL; Cmax [6]: 520 ng/mL; half-life (oral, 240 mg, Day 1, 240 mg, n=2, mean, read-out: T1/2 (converted)): 17.5 h; Tmax [6]: 5 h; Tmax (oral, 240 mg, Day 15, 240 mg, individual subjects): 2 h; AUC(0-t) (oral, 240 mg, Day 15, 240 mg, n=2, mean, read-out: AUC0-24): 14900 ng·h/mL; Cmax [7]: 954 ng/mL; half-life (oral, 240 mg, Day 15, 240 mg, n=2, mean, read-out: T1/2 (converted)): 19.7 h; Tmax [7]: 2 h; AUC(0-t) (oral, 240 mg, steady state, 240 QD mg, n=2, mean, cancer patients, read-out: AUC0-24h): 14900 ng·h/mL; Cmax [8]: 954 ng/mL; Tmax [8]: 2 h; half-life (oral, 400 mg, Day 1, 400 QD mg, individual subjects, read-out: T1/2 (converted)): 15.2 h; AUC(0-t) (oral, 400 mg, Day 1, 400 QD mg, n=2, mean, read-out: AUC0-24): 15000 ng·h/mL; Cmax (oral, 400 mg, Day 1, 400 QD mg, n=2, mean): 1070 ng/mL; half-life (oral, 400 mg, Day 1, 400 QD mg, n=2, mean, read-out: T1/2 (converted)): 15.4 h; Tmax (oral, 400 mg, Day 1, 400 QD mg, n=2): 2 h; AUC(0-t) (oral, 400 mg, Day 1, 400 bid mg, individual subjects, read-out: AUC0-24): 32100 ng·h/mL; Cmax [9]: 2330 ng/mL; half-life (oral, 400 mg, Day 1, 400 bid mg, individual subjects, read-out: T1/2 (converted)): 22.5 h; Tmax [9]: 8 h; AUC(0-t) (oral, 400 mg, Day 1, 400 bid mg, mean, read-out: AUC0-24): 26300 ng·h/mL; Cmax [10]: 1880 ng/mL; half-life (oral, 400 mg, Day 1, 400 bid mg, mean, read-out: T1/2 (converted)): 18.6 h; Tmax [10]: 6 h; AUC(0-t) (oral, 400 mg, Day 15, 400 QD mg, individual subjects, read-out: AUC0-24): 25500 ng·h/mL; Cmax (oral, 400 mg, Day 15, 400 QD mg, individual subjects): 2770 ng/mL; half-life (oral, 400 mg, Day 15, 400 QD mg, individual subjects, read-out: T1/2 (converted)): 10.1 h; AUC(0-t) (oral, 400 mg, Day 15, 400 QD mg, n=2, mean, read-out: AUC0-24): 33400 ng·h/mL; Cmax [11]: 2850 ng/mL; half-life (oral, 400 mg, Day 15, 400 QD mg, n=2, mean, read-out: T1/2 (converted)): 10.9 h; Tmax [11]: 4.5 h; AUC(0-t) (oral, 400 mg, Day 15, 400 bid mg, n=1, read-out: AUC0-24): 110000 ng·h/mL; Cmax [12]: 5900 ng/mL; Tmax [12]: 2 h; AUC(0-t) (oral, 400 mg, steady state, 400 BID mg, n=1, cancer patients, read-out: AUC0-24h): 110000 ng·h/mL; Cmax [13]: 5990 ng/mL; Tmax [13]: 2 h; AUC(0-t) (oral, 400 mg, steady state, 400 QD mg, n=2, mean, cancer patients, read-out: AUC0-24h): 33400 ng·h/mL; Cmax [14]: 2850 ng/mL; Tmax [14]: 4.5 h; half-life (po, human subjects, oral tablets, read-out: Effective t½ (converted)): ~24 h; half-life (po, human subjects, oral tablets, read-out: t1/2 (rate of elimination)): 10 to 25 h; Cmin (steady state, 10 QD mg, n=1, cancer patients): 16.0 ng/mL; Cmin (steady state, 20 QD mg, n=1, cancer patients): 76.4 ng/mL; Cmin (steady state, 40 QD mg, n=2, mean, cancer patients): 167 ng/mL; Cmin (steady state, 80 QD mg, n=2, mean, cancer patients): 614 ng/mL; Cmin (steady state, 120 QD mg, n=3, mean, cancer patients): 239 ng/mL; Cmin (steady state, 240 QD mg, n=2, mean, cancer patients): 463 ng/mL; Cmin (steady state, 400 BID mg, n=1, cancer patients): 3718 ng/mL; Cmin (steady state, 400 QD mg, n=2, mean, cancer patients): 589 ng/mL
